Patent US20090082329A1 (AVENTIS PHARMA S.A., priority 2006, published 2009)
Like-named read-outs stand apart in the source and are kept apart here.

Columns and labels:
MEF-IGF1R cells = experiment: Proliferation/viability of MEF-IGF1R (Thymidine [14C] incorporation); format: cell-based; details: rhIGF1 100 ng/mL, incubation 72 hours, read-out: Test C IC50
Experimental: C) Measurement of the Proliferation/Viability of MEF-IGF1R
Cell culture: the MEF-IGF1R cells (stable clone of cells transfected with the receptor hIGF-1R) are cultured at 37° C. under 5% CO2 in EMEM medium containing 10% FCS.
Test procedure: the cells are seeded at 5000 cells per well in 96-well Cytostar plates (Amersham) with 0.2 mL of EMEM culture medium at 37° C. for 18 hours. The cells are then washed twice with EMEM medium and left to culture without serum for 24 hours. The compounds are then added at various concentrations in the presence of rhIGF1 (100 ng/mL) and 0.1 μCi of Thymidine [^14C] (specific activity ˜50 mCi/mmol) to give 0.2 mL of volume per well. After incubation for 72 hours in the presence of the compound, at 37° C. under 5% CO2, the incorporation of Thymidine [^14C] is measured by counting the radioactivity on a Microbeta trilux counter (Perkin-Elmer). The IC50 is determined from 10 increasing concentrations of the compound.
(§1) (i) The tests are performed in duplicate and the mean of the two tests is calculated.
(§2) (ii) The value of the signal of the maximum response is calculated from the positive control: cells stimulated with IGF1 without compound.
(§3) (iii) Value of the signal of the minimum response is calculated from the negative control: cells not stimulated with IGF1 without compound.
(§4) (iv) By using these values as maximum (100%) and minimum (0%), respectively, the data were normalized so as to give a percentage of the maximum response.
(§5) (v) A curve of dose response is plotted and the IC50 (the concentration of which the compound induces a 50% decrease in the signal) of the compound is calculated by non-linear regression analysis.

IGF-1R in MCF7 cells [1] = target: T1, IGF-1R in MCF7 cells (Homo sapiens, UniProt P08069); experiment: Autophosphorylation of IGF-1R in MCF7 cells after stimulation with IGF-1 (ELISA); format: cell-based; set-up: endogenous in cells; host or cells: MCF-7 cells; details: MCF-7 cells, compound added one hour before stimulation with IGF1; read-out: Test B IC50
T1 sequence (P08069 31-1367): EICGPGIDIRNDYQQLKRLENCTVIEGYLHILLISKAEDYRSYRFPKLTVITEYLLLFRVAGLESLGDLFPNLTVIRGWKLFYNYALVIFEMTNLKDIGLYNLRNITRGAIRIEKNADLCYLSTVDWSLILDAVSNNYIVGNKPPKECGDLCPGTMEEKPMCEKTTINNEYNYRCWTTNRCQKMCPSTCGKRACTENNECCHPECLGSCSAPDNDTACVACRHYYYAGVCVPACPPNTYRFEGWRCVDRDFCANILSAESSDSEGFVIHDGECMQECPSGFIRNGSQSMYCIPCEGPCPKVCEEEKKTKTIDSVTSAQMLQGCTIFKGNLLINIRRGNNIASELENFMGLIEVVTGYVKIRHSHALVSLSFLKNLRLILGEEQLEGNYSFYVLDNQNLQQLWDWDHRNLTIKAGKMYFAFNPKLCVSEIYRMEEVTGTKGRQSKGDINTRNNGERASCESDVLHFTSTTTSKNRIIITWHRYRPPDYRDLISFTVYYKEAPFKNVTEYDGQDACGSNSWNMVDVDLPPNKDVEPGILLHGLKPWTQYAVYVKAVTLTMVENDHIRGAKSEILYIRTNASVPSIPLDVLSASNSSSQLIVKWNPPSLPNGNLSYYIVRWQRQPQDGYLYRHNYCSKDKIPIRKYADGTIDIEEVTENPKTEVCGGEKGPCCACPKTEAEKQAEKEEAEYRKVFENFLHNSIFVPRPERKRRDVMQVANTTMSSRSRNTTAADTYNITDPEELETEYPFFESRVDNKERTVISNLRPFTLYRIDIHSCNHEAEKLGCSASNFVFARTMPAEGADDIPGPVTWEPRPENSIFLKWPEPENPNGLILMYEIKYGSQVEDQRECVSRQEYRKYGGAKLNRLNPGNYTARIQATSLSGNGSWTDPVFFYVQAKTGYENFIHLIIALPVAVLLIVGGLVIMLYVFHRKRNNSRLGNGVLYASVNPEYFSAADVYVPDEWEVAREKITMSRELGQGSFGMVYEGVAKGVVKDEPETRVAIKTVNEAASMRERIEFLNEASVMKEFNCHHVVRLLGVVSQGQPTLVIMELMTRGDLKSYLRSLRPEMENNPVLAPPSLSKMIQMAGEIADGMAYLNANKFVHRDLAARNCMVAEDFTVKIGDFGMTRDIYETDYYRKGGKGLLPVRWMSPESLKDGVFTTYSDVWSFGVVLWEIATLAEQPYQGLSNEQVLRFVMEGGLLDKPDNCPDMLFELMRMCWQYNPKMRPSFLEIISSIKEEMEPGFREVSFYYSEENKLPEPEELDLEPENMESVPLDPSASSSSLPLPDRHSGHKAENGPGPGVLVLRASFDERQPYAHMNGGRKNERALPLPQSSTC
Experimental: (§6) B) Measurement of the Autophosphorylation of IGF-1R in MCF7 Cells after Stimulation with IGF-1
(§7) Cell Culturing and Execution of the Test:
(§8) The autophosphorylation of IGF1R in the IGF1-induced cells is evaluated by means of an ELISA technique (Enzyme Linked ImmunoSorbent Assay). The MCF-7 are seeded at 60 000 cells per well in 6-well plates and incubated at 37° C., 5% CO2 in medium containing 10% serum. After one night in 10% serum, the cells are deprived of serum for 24 hours. The compounds are added to the medium one hour before stimulation with IGF1. After 10 minutes of stimulation with IGF1, the cells are lysed with a buffer (Hepes 50 mM pH 7.6, Triton X100 1%, orthovanadate 2 mM, protease inhibitor cocktail). The cell lysates are incubated on a 96-well plate precoated with an anti-IGF1R antibody, followed by incubation with an anti-phosphotyrosine antibody coupled to the enzyme peroxidase. The level of peroxidase activity (measured by OD with a luminescent substrate) reflects the phosphorylation status of the receptor.
as §1, §2, §3, §4, §5

[2] = target: T2, human cytoplasmic domain of IGF-1R (Homo sapiens, UniProt P08069); experiment: Kinase IGF-1R test: inhibition of autophosphorylation of the enzyme (HTRF); format: biochemical; details: ATP 120 μM
T2 construct: The human cytoplasmic domain of IGF-1R was cloned by fusion with glutathione S-transferase (GST); made in house; host or cells: SF21 insect cells (baculovirus, pFastBac-GST)
T2 sequence (P08069 960-1367 limits assumed): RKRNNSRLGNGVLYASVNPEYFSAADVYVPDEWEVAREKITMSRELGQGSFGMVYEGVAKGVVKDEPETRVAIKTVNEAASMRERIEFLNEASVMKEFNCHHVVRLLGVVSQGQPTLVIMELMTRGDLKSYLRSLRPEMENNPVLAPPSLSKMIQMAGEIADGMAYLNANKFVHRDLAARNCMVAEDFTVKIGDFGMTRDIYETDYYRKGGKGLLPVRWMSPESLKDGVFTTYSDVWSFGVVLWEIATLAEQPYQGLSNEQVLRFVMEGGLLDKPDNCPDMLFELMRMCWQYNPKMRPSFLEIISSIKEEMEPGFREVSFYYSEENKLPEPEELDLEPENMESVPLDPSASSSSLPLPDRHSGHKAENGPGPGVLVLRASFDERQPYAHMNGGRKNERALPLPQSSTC
Experimental: A) Experimental Protocol for the Kinase IGF-1R Test:
The inhibitory activity of the compounds on IGF1R is determined by measuring the inhibition of autophosphorylation of the enzyme using a time-resolved fluorescence test (HTRF). The human cytoplasmic domain of IGF-1R was cloned by fusion with glutathione S-transferase (GST) in the baculovirus expression vector pFastBac-GST. The protein is expressed in the SF21 cells and purified to about 80% homogeneity. For the enzymatic test, the test compound at 10 mM dissolved in DMSO is diluted in ⅓ steps in a 50 mM Hepes, pH 7.5, 5 mM MnCl2, 50 mM NaCl, 3% Glycerol, 0.025% Tween 20 buffer. To measure the inhibition, the successive dilutions of the compound are preincubated for 30 minutes and 90 minutes in the presence of 5 nM of enzyme, the final DMSO concentration not exceeding 1%. The enzymatic reaction is initiated to have a final ATP concentration of 120 μM, and is stopped after 5 minutes by addition of 100 mM Hepes, pH 7.0 buffer containing 0.4 M of potassium fluoride, 133 mM EDTA, 0.1% BSA, the XL665-labelled antibody anti-GST and the anti-phosphotyrosine antibody conjugated to europium cryptate Eu—K (Cis-Bio Int.). The characteristics of the two fluorophores, XL-665 and Eu—K, are available in G. Mathis et al., Anticancer Research, 1997, 17, pages 3011-3014. The energy transfer between the excited europium cryptate to the acceptor XL665 is proportional to the degree of autophosphorylation of IGF-1R. The specific long-lasting signal of XL-665 is measured in a GENios Pro TECAN plate counter. The inhibition of autophosphorylation of IGF-1R at time 30 minutes and 90 minutes with the test compounds of the invention is calculated relative to a 1% in DMSO control, whose activity is measured in the absence of compound. The curve representing the percentage of inhibition as a function of the log of the concentration is established to determine the concentration corresponding to 50% inhibition (IC50),

IGF-1R in MCF7 cells [3] = target: T1, IGF-1R in MCF7 cells; experiment: Autophosphorylation of IGF-1R in MCF7 cells after stimulation with IGF-1 (ELISA); format: cell-based; set-up: The autophosphorylation of IGF1R in the IGF1-induced cells is evaluated by means of an ELISA technique; endogenous in cells; host or cells: MCF-7 cells; details: MCF-7 cells, compound added one hour before stimulation with IGF1; read-out: Test B IC50
Experimental: as §6, §7, §8, §1, §2
(iii) Value of the signal of the minimum response is calculated from the negative control: cells not stimulated with IGF1 without compound. […]

[4] = preincubation 30 minutes with 5 nM enzyme, read-out: Test A 30′ IC50
[5] = preincubation 90 minutes with 5 nM enzyme, read-out: Test A 90′ IC50

CC1(C)C(=O)N(c2ccc(SC(F)(F)F)cc2)C(=O)N1Cc1ccnc(NC(=O)N2CCC2)c1 [Example 27, N-{4-[(5,5-dimethyl-2,4-dioxo-3-{4-[(trifluoro-methyl)thio]phenyl}imidazolidin-1-yl)methyl]pyridin-2-yl}azetidine-1-carboxamide]
IC50 (MEF-IGF1R cells): < 10 nM | IC50 (IGF-1R in MCF7 cells [1]): 10 to 100 nM | IC50 [2, 4]: 10 to 100 nM | IC50 [2, 5]: 10 to 100 nM

CC1(C)C(=O)N(c2ccc(SC(F)(F)F)cc2)C(=O)N1Cc1ccnc(NC(=O)N2CCCC2)c1 [Example 28, N-{4-[(5,5-dimethyl-2,4-dioxo-3-{4-[(trifluoromethyl)thio]phenyl}imidazolidin-1-yl)methyl]pyridin-2-yl}pyrrolidine-1-carboxamide]
IC50 (MEF-IGF1R cells): 10 to 100 nM | IC50 (IGF-1R in MCF7 cells [1]): < 10 nM | IC50 [2, 4]: 10 to 100 nM | IC50 [2, 5]: 10 to 100 nM

CC1(C)C(=O)N(c2ccc(SC(F)(F)F)cc2)C(=O)N1Cc1ccnc(NC(=O)N2CCOCC2)c1 [Example 29, N-{4-[(5,5-dimethyl-2,4-dioxo-3-{4-[(trifluoro-methyl)thio]phenyl}imidazolidin-1-yl)methyl]pyridin-2-yl}morpholine-4-carboxamide]
IC50 (MEF-IGF1R cells): 10 to 100 nM | IC50 (IGF-1R in MCF7 cells [1]): 10 to 100 nM | IC50 [2, 4]: 10 to 100 nM | IC50 [2, 5]: 10 to 100 nM

CN1CCN(C(=O)Nc2cc(CN3C(=O)N(c4ccc(SC(F)(F)F)cc4)C(=O)C3(C)C)ccn2)CC1 [Example 30, N-{4-[(5,5-dimethyl-2,4-dioxo-3-{4-[(trifluoro-methyl)thio]phenyl}imidazolidin-1-yl)methyl]pyridin-2-yl}-4-methylpiperazine-1-carboxamide]
IC50 (MEF-IGF1R cells): > 100 nM | IC50 (IGF-1R in MCF7 cells [1]): 10 to 100 nM | IC50 [2, 4]: 10 to 100 nM | IC50 [2, 5]: < 10 nM

CCN(C)C(=O)Nc1cc(CN2C(=O)N(c3ccc(SC(F)(F)F)cc3)C(=O)C2(C)C)ccn1 [Example 34, 3-{4-[(5,5-dimethyl-2,4-dioxo-3-{4-[(trifluoro-methyl)thio]phenyl}imidazolidin-1-yl)methyl]pyridin-2-yl}-1-ethyl-1-methylurea]
IC50 (MEF-IGF1R cells): 10 to 100 nM | IC50 (IGF-1R in MCF7 cells [1]): 10 to 100 nM | IC50 [2, 4]: 10 to 100 nM | IC50 [2, 5]: 10 to 100 nM

CCCN(C)C(=O)Nc1cc(CN2C(=O)N(c3ccc(SC(F)(F)F)cc3)C(=O)C2(C)C)ccn1 [Example 35, 3-{4-[(5,5-dimethyl-2,4-dioxo-3-{4-[(trifluoromethyl)thio]phenyl}imidazolidin-1-yl)methyl]pyridin-2-yl}-1-methyl-1-propylurea]
IC50 (MEF-IGF1R cells): 10 to 100 nM | IC50 (IGF-1R in MCF7 cells [1]): 10 to 100 nM | IC50 [2, 4]: 10 to 100 nM | IC50 [2, 5]: 10 to 100 nM

CCCCN(C)C(=O)Nc1cc(CN2C(=O)N(c3ccc(SC(F)(F)F)cc3)C(=O)C2(C)C)ccn1 [Example 36, 1-butyl-3-{4-[(5,5-dimethyl-2,4-dioxo-3-{4-[(trifluoromethyl)thio]phenyl}imidazolidin-1-yl)methyl]pyridin-2-yl}-1-methylurea]
IC50 (MEF-IGF1R cells): 10 to 100 nM | IC50 (IGF-1R in MCF7 cells [1]): 10 to 100 nM | IC50 [2, 4]: 10 to 100 nM | IC50 [2, 5]: 10 to 100 nM

CN(C)CCCNC(=O)Nc1cc(CN2C(=O)N(c3ccc(SC(F)(F)F)cc3)C(=O)C2(C)C)ccn1 [Example 39, 1-[3-(dimethylamino)propyl]-3-{4-[(5,5-dimethyl-2,4-dioxo-3-{4-[(trifluoromethyl)thio]phenyl}imidazolidin-1-yl)methyl]pyridin-2-yl}urea]
IC50 (MEF-IGF1R cells): > 100 nM | IC50 (IGF-1R in MCF7 cells [1]): > 100 nM | IC50 [2, 4]: 10 to 100 nM | IC50 [2, 5]: 10 to 100 nM

CC1(C)C(=O)N(c2ccc(SC(F)(F)F)cc2)C(=O)N1Cc1ccnc(NC(N)=O)c1 [Example 40A]
IC50 (MEF-IGF1R cells): 10 to 100 nM | IC50 (IGF-1R in MCF7 cells [3]): < 10 nM | IC50 [2, 4]: 10 to 100 nM | IC50 [2, 5]: < 10 nM

CC1(C)C(=O)N(c2ccc(SC(F)(F)F)cc2)C(=O)N1Cc1ccnc(Nc2cccc(F)c2)c1 [Example 40C, 1-({2-[(3-fluorophenyl)amino]pyridin-4-yl}methyl)-5,5-dimethyl-3-{4-[(trifluoromethyl)thio]phenyl}imidazolidine-2,4-dione]
IC50 (MEF-IGF1R cells): 10 to 100 nM | IC50 (IGF-1R in MCF7 cells [1]): 10 to 100 nM | IC50 [2, 4]: > 100 nM | IC50 [2, 5]: 10 to 100 nM

CC1(C)C(=O)N(c2ccc(SC(F)(F)F)cc2)C(=O)N1Cc1ccnc(NC2CC2)c1 [Example 40D, 1-{[2-(cyclopropylamino)pyridin-4-yl]methyl}-5,5-dimethyl-3-{4-[(trifluoromethyl)thio]phenyl}imidazolidine-2,4-dione]
IC50 (MEF-IGF1R cells): > 100 nM | IC50 (IGF-1R in MCF7 cells [1]): 10 to 100 nM | IC50 [2, 4]: 10 to 100 nM | IC50 [2, 5]: 10 to 100 nM

CC1(C)C(=O)N(c2ccc(SC(F)(F)F)cc2)C(=O)N1Cc1ccnc(Nc2cccnc2Cl)c1 [Example 40E, 1-({2-[(2-chloropyridin-3-yl)amino]pyridin-4-yl}-methyl)-5,5-dimethyl-3-{4-[(trifluoromethyl)thio]phenyl}imidazolidine-2,4-dione]
IC50 (MEF-IGF1R cells): 10 to 100 nM | IC50 (IGF-1R in MCF7 cells [1]): 10 to 100 nM | IC50 [2, 4]: 10 to 100 nM | IC50 [2, 5]: 10 to 100 nM

CC1(C)C(=O)N(c2ccc(SC(F)(F)F)cc2)C(=O)N1Cc1ccnc(Nc2ccc(Cl)nc2)c1 [Example 40F, 1-({2-[(6-chloropyridin-3-yl)amino]pyridin-4-yl}-methyl)-5,5-dimethyl-3-{4-[(trifluoromethyl)thio]phenyl}imidazolidine-2,4-dione]
IC50 (MEF-IGF1R cells): > 100 nM | IC50 (IGF-1R in MCF7 cells [1]): > 100 nM | IC50 [2, 4]: > 100 nM | IC50 [2, 5]: 10 to 100 nM

CC1(C)C(=O)N(c2ccc(SC(F)(F)F)cc2)C(=O)N1Cc1ccnc(Nc2ccc(O)nc2)c1 [Example 40G, 1-({2-[(6-hydroxypyridin-3-yl)amino]pyridin-4-yl}-methyl)-5,5-dimethyl-3-{4-[(trifluoromethyl)thio]phenyl}imidazolidine-2,4-dione]
IC50 (MEF-IGF1R cells): > 100 nM | IC50 (IGF-1R in MCF7 cells [1]): 10 to 100 nM | IC50 [2, 4]: 10 to 100 nM | IC50 [2, 5]: 10 to 100 nM

COC(=O)Nc1cc(CN2C(=O)N(c3ccc(SC(F)(F)F)cc3)C(=O)C2(C)C)ccn1 [Example 40L, methyl {4-[(5,5-dimethyl-2,4-dioxo-3-{4-[(tri-fluoromethyl)thio]phenyl}imidazolidin-1-yl)methyl]pyridin-2-yl}carbamate]
IC50 (MEF-IGF1R cells): > 100 nM | IC50 (IGF-1R in MCF7 cells [1]): 10 to 100 nM | IC50 [2, 4]: 10 to 100 nM | IC50 [2, 5]: < 10 nM
